# Read-outs that look alike come from different tables or passages of the source. Where no end group is shown, it is not given here. [ ]: non-standard residue; d: D form. Lys(Me3) = C[N+](C)(C)CCCC[C@H](N)C(=O)O; Lys(Me2) = CN(C)CCCC[C@H](N)C(=O)O
# Columns and labels:
# PHD of ING4 = biological target: T1, PHD of ING4 (Homo sapiens, UniProt Q9UNL4); assay: NMR titration of ING4-PHD with histone H3 peptides (CSP of W237 amide, 1H-15N HSQC); format: binding
# T1 construct: we did the titration by NMR on a sample of 10 µM PHD of ING4
# Procedure: These contained 50 or 10 µM uniformly -^15N enriched PHD in 20 mM sodium phosphate pH 6.5, 50 mM NaCl, 1 mM perdeuterated dithiotreitol, 5% (v/v) ^2H2O, and 0.01% (w/v) NaN3, plus different concentrations of Ficoll 70. […] Thus, the NMR titrations were completed in less than 24 h. NMR spectra were recorded at 25 °C on a BRUKER Avance III 800 spectrometer equipped with a TCI cryogenically cooled probe. At a concentration of 50 µM PHD, ^1H-^15N Heteronuclear Single Quantum Coherence (HSQC) spectra could be recorded in about 2 h with sufficient quality to measure the chemicals shift perturbations on peptide addition. At 10 µM PHD concentration, HSQC were recorded with only 16 t1 points and a ^15N spectral width of 10 ppm. […] In this way, the full titration of ING4-PHD with the histone peptide could be measured in less than 24 h.
# Next, we measured the affinity of the binding in presence of Ficoll, by means of a NMR titration of the PHD with H3K4me3 peptide but in presence of 15% Ficoll (Figure 2). For binding analysis, we used the backbone amide signal of amino acid W237 because it experiences a large CSP upon peptide binding and is well isolated in a region of the spectrum with few other signals. […] This makes it necessary to reduce the protein concentration of the experiment.
# On the other hand, the presence of 15% Ficoll 70 lowered the signal to noise ratio of the NMR experiment as signals got broader due to the increased viscosity of sample. So, we had to decrease the protein concentration of the experiment but not so much as to lose the signals in the noise. […] In these conditions, we could record ^1H-^15N HSQC experiments in 2 h and complete the titration in less than 1 day.
# Once we got the optimum conditions, we did the titration by NMR on a sample of 10 µM PHD of ING4 in the presence of increasing amounts of H3K4me3 peptide (Figure 3).
# Titrations at different percentages of Ficoll (0, 5, and 10 %) were done by NMR in a same manner as the titration at 15% Ficoll.
# [1] = biological target: T2, Plant Homeodomain (PHD) of ING4 (uniformly 15N enriched (NMR samples)); assay: NMR titration; 10 µM 15N PHD titrated with peptide, 15% Ficoll 70; 20 mM sodium phosphate pH 6.5, 50 mM NaCl, 1 mM DTT, 25 °C; CSP of W237 amide in 1H-15N HSQC, single site fit; settings: both partners purified
# T2 chain: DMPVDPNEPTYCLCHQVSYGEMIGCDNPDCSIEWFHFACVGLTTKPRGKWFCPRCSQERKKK
# [2] = biological target: T2, Plant Homeodomain (PHD) of ING4; assay: NMR titration; PHD titrated with peptide, 0% Ficoll 70; 20 mM sodium phosphate pH 6.5, 50 mM NaCl, 1 mM DTT, 25 °C; CSP of W237 amide; settings: both partners purified
Molecule,Kd [1] [nM],Kd (PHD of ING4) [nM],other results
CNCCCC[C@H](NC(=O)[C@@H](NC(=O)[C@H](CCCNC(=N)N)NC(=O)[C@H](C)N)[C@@H](C)O)C(=O)N[C@@H](CCC(N)=O)C(=O)N[C@H](C(=O)N[C@@H](C)C(=O)N[C@@H](CCCNC(=N)N)C(=O)N[C@@H](CCCCN)C(=O)N[C@@H](CO)C(=O)N[C@H](C(=O)NCC(=O)NCC(=O)N[C@@H](CCCCN)C(=O)N[C@@H](C)C(=O)N[C@@H](Cc1ccc(O)cc1)C(=O)O)[C@@H](C)O)[C@@H](C)O [H3K4me1],–,12000 ± 4000,–
C[C@H](N)C(=O)N[C@@H](CCCNC(=N)N)C(=O)N[C@H](C(=O)N[C@@H](CCCCN(C)C)C(=O)N[C@@H](CCC(N)=O)C(=O)N[C@H](C(=O)N[C@@H](C)C(=O)N[C@@H](CCCNC(=N)N)C(=O)N[C@@H](CCCCN)C(=O)N[C@@H](CO)C(=O)N[C@H](C(=O)NCC(=O)NCC(=O)N[C@@H](CCCCN)C(=O)N[C@@H](C)C(=O)N[C@@H](Cc1ccc(O)cc1)C(=O)O)[C@@H](C)O)[C@@H](C)O)[C@@H](C)O [H3K4me2],–,1400 ± 600,–
C[C@H](N)C(=O)N[C@@H](CCCNC(=N)N)C(=O)N[C@H](C(=O)N[C@@H](CCCC[N+](C)(C)C)C(=O)N[C@@H](CCC(N)=O)C(=O)N[C@H](C(=O)N[C@@H](C)C(=O)N[C@@H](CCCNC(=N)N)C(=O)N[C@@H](CCCCN)C(=O)N[C@@H](CO)C(=O)N[C@H](C(=O)NCC(=O)NCC(=O)N[C@@H](CCCCN)C(=O)N[C@@H](C)C(=O)N[C@@H](Cc1ccc(O)cc1)C(=O)O)[C@@H](C)O)[C@@H](C)O)[C@@H](C)O [H3K4me3],–,400 ± 300,"Kd (PHD of ING4; absence of Ficoll (0%), NMR, 20 mM sodium phosphate pH 6.5, 50 mM NaCl, 25 °C, read-out: KD): 3900 ± 700 nM"

# The next lines start with results.
Kd [1] [nM],Molecule,Kd (PHD of ING4) [nM],other results
1400 ± 600,"ART[Lys(Me2)]QTARKSTGGKAY (histone H3 N-terminal tail, residues 1-15; extra Tyr residue at the C-terminus for concentration measurement by UV absorbance; also called H3K4me2) [histone H3 peptide (residues 1-15 plus C-terminal Tyr) dimethylated at lysine 4]",–,–
100000 ± 10000,"ARTKQTARKSTGGKAY (histone H3 N-terminal tail, residues 1-15; extra Tyr residue at the C-terminus for concentration measurement by UV absorbance; also called H3K4me0; unmethylated histone H3 tail) [histone H3 peptide (residues 1-15 plus C-terminal Tyr), unmethylated at lysine 4]",–,–
400 ± 300,"ART[Lys(Me3)]QTARKSTGGKAY (histone H3 N-terminal tail, residues 1-15; extra Tyr residue at the C-terminus for concentration measurement by UV absorbance; also called H3K4me3; H3K4me3 peptide) [histone H3 peptide (residues 1-15 plus C-terminal Tyr) trimethylated at lysine 4]",–,Kd [2]: 3900 ± 700 nM

# Reference: article PMC7072245, “Macromolecular Crowding Increases the Affinity of the PHD of ING4 for the Histone H3K4me3 Mark” (Biomolecules, 2020)
